Measured values from publication PMC8746705, “Comparison of Experimental Strategies to Study L-Type Amino Acid Transporter 1 (LAT1) Utilization by Ligands” (Molecules, 2021).
Where two headings read alike, the source gives them in different places.

Assays:
Transport Type 2 = assay: Concentration-dependent cellular uptake into BV2 cells, Eadie–Hofstee analysis, Transport Type 2; format: cell-based, mouse; conditions: 1–200 µM, 30 min, mean ± SD, n = 3
Description: For the concentration-dependent cellular uptake experiments, the BV2 cells on 24-well plates were incubated with studied compounds (1–200 μM) in pre-warmed HBSS buffer (250 μL) at 37 °C for 30 min. The experiment was then carried out as described for the time-dependent uptake above and the concentration of studied compounds in the cell lysate was analyzed by the LC-MS/MS methods described above and the results were normalized to the total protein concentration. The distinct transport mechanisms were separated from the Michaelis-Menten kinetics by using Eadie–Hofstee plot.
The studied compounds (1–15) were analyzed by using Agilent 1200 Series Rapid Resolution LC System together with an Agilent 6410 Triple Quadrupole Mass Spectrometer equipped with an electrospray ionization source (Agilent Technologies, Santa Clara, CA, USA). The chromatographic separations of analytes were achieved by using a reversed-phase Zobrax SB-C18 column (50 mm × 2.1 mm, 1.8 μm; Agilent Technologies, Santa Clara, CA, USA) by eluting the samples with 0.1% formic acid in water (A) and 0.1% formic in ACN (B). Labetalol and diclofenac were used as internal standards (ISTD) for the prodrugs and parent drugs, respectively. The transitions used for the quantification at the positive ion mode and chromatographic conditions of each compound and their parent drugs are listed in Table S1. The methods of compounds 1–11 have been reported earlier, while the methods of compounds 12–15 are reported herein for the first time.

LAT1 = LAT1 (Mus musculus, UniProt Q9Z127); assay: Cis-inhibition of radiolabelled LAT1-probe substrate uptake into BV2 cells; format: cell-based; conditions: for IC50: 5 min, mean ± SD; for Inhibition of LAT1-probe substrate uptake / LAT1 affinity: over all probe substrates
Method in brief: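 Mouse BV2 cells preincubated 10 min at 37 °C in choline-based HBSS pH 7.4, then 5 min uptake of [14C]-L-leucine (0.2 µCi/mL) or [3H]-methionine, -tryptophan or -kynurenine (2 µCi/mL) with 0.1–1000 μM compound. Cell radioactivity counted by liquid scintillation after lysis. IC50 by nonlinear regression.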

[1] = Stability / bioconversion of prodrugs to parent drugs (biological media, 0.1 M NaOH cell lysing); format: in vitro ADME; conditions: cell lysate samples for LC-MS/MS (Table S1 footnote)
Description: LAT1-utilizing prodrugs 1–15 (Figure 1) were selected for this study based on their ability to utilize LAT1 expressed in cells used in our previous studies. Therefore, the syntheses of these compounds are not described herein as they have been reported earlier. These compounds include prodrugs of an investigational immunosuppressive agent, perforin inhibitor (1), non-steroidal anti-inflammatory drugs (NSAIDs), ketoprofen (2–4, 14), salicylic acid (8), flurbiprofen (9 and 12), ibuprofen (10 and 13) and naproxen (11 and 15), as well as the polyphenolic antioxidant, ferulic acid (5–7). […] In addition, all NSAID prodrugs (compounds 2–4, 9–15) were prepared from their pure S-enantiomers. Prodrugs of ferulic acid (compounds 5–7) were mixtures of E- and […], which were interconvertible over time. […] Therefore, both prodrug and the released parent drug proportions were quantified and taken into account when calculating concentrations transported into the cells.
1. LC-MS/MS ionization parameters of compounds 1-15
Table S1. Ionization parameters for the LC-MS/MS methods of the studied compounds.
Precursor Product Fragmentor Collision Flow rate Gradient LLOQ
Compound ion ion(s) Voltage (V) Energy (mL/min) (A:B) (nM) […]
perforin inhibitor 1a and therefore, their transitions with a positive ion mode are reported only as KPF or as a prodrug and parent drug in parentheses. […]
drugs (ferulic acid (FA), flurbiprofen (FLB), ibuprofen (IBU), and naproxen (NPX), respectively), whose transitions with a negative ion mode are reported below the studied LAT1 -utilizing compounds i n parentheses.

[2] = probe [3H]-L-Kynu, n = 3–4, read-out: IC50 of [3H]-L-Kynu uptake
[3] = probe [3H]-L-Met, n = 3–4, read-out: IC50 of [3H]-L-Met uptake
[4] = probe [3H]-L-Trp, n = 3–4, read-out: IC50 of [3H]-L-Trp uptake
[5] = probe [14C]-L-Leu, n = 3–4, read-out: IC50 of [14C]-L-Leu uptake

Sequence of LAT1 (Q9Z127 whole entry): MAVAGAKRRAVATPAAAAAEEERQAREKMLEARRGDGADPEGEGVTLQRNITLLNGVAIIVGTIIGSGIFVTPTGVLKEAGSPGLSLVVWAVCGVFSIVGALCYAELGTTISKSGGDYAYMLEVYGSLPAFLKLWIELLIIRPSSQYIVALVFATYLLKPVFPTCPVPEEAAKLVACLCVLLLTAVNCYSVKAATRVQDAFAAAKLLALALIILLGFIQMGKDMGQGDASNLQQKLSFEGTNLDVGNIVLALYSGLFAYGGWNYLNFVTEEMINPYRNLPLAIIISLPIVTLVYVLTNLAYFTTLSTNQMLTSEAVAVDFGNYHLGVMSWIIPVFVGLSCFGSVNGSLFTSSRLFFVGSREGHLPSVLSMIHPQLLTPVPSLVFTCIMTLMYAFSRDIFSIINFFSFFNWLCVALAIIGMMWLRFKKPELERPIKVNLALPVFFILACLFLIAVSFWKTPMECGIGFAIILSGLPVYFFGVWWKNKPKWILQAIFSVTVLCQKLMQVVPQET
Sequence of LAT1 (P10852 whole entry partner): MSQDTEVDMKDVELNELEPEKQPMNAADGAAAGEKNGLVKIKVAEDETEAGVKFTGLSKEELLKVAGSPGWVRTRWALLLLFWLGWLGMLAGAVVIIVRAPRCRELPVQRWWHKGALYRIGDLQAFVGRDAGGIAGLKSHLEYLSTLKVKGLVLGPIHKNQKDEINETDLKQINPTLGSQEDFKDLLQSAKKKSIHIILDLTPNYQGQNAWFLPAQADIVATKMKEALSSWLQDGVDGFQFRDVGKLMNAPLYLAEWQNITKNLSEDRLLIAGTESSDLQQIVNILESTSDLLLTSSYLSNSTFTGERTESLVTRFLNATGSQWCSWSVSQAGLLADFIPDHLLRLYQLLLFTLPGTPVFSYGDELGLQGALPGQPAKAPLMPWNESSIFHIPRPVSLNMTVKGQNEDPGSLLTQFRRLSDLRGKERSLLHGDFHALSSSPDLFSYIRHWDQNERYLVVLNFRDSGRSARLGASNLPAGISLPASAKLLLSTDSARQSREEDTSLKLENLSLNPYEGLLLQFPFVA

IC50 (LAT1; [2]) [µM] | IC50 (LAT1; [3]) [µM] | IC50 (LAT1; [4]) [µM] | IC50 (LAT1; [5]) [µM] | Conversion to parent drug in the analysed samples [1] | SMILES | Km (Transport Type 2) [µM] | Transport Type 2 Vmax (Transport Type 2) [pmol/mg/min] | Inhibition of LAT1-probe substrate uptake / LAT1 affinity (LAT1)
0.7 ± 0.1 | 8.2 ± 1.7 | 6.7 ± 1.6 | 6.8 ± 1.4 | partly | NC(Cc1cccc(C(=O)Oc2ccc(-c3ccc(-c4ccc5c(c4)COC5=O)s3)cc2)c1)C(=O)O (stereo not drawn) [Compound 1] | 347 ± 26 | 5067 ± 327 | –
4.3 ± 1.3 | 3.3 ± 1.5 | 9.9 ± 1.3 | 2.8 ± 1.5 | – | C[C@H](C(=O)Nc1cccc(C[C@H](N)C(=O)O)c1)c1cccc(C(=O)c2ccccc2)c1 [Compound 2] | 199 ± 50 | 0.88 ± 0.16 | –
43.3 ± 1.1 | > 100 | > 100 | > 100 | – | COc1cc(C=CC(=O)NCc2cccc(CC(N)C(=O)O)c2)ccc1O (stereo not drawn) [Compound 5] | 77 ± 13 | 0.27 ± 0.02 | not able to inhibit the LAT1-probe substrate uptake very effectively
4.7 ± 1.2 | 1.7 ± 1.8 | 15.9 ± 7.8 | – | – | C[C@H](C(=O)Nc1cccc(C[C@H](N)C(=O)O)c1)c1ccc(-c2ccccc2)c(F)c1 [Compound 9] | – | – | –
3 ± 1.5 | 4.3 ± 1.7 | 6.3 ± 1.3 | – | partly converted to their parent | C[C@H](C(=O)Oc1cccc(C[C@H](N)C(=O)O)c1)c1ccc(-c2ccccc2)c(F)c1 [Compound 12] | – | – | –

Continued, compound first:

SMILES | IC50 (LAT1; [2]) [µM] | IC50 (LAT1; [3]) [µM] | IC50 (LAT1; [4]) [µM] | IC50 (LAT1; [5]) [µM] | Conversion to parent drug in the analysed samples [1] | Km (Transport Type 2) [µM] | Transport Type 2 Vmax (Transport Type 2) [pmol/mg/min] | Inhibition of LAT1-probe substrate uptake / LAT1 affinity (LAT1)
C[C@H](C(=O)Oc1cccc(C[C@H](N)C(=O)O)c1)c1cccc(C(=O)c2ccccc2)c1 [Compound 4] | 35.3 ± 1.2 | 26.1 ± 1.4 | 38.8 ± 3.1 | 15 ± 1.3 | fully converted into ketoprofen | 159 ± 45 | 231 ± 40 | –
COc1cc(/C=C/C(=O)Oc2cccc(C[C@H](N)C(=O)O)c2)ccc1O [Compound 7] | 96.8 ± 1.2 | 13.6 ± 1.8 | 19.8 ± 1.3 | 37.6 ± 1.8 | partly converted to their parent | 62 ± 14 | 0.21 ± 0.02 | –
N[C@@H](Cc1cccc(NC(=O)c2ccccc2O)c1)C(=O)O [Compound 8] | 18.1 ± 1.2 | 12 ± 1.4 | 24.5 ± 2 | – | – | 41 ± 5 | 185 ± 10 | not able to inhibit the LAT1-probe substrate uptake very effectively
COc1ccc2cc([C@H](C)C(=O)Oc3cccc(C[C@H](N)C(=O)O)c3)ccc2c1 [Compound 15] | 3.1 ± 1.3 | 25.3 ± 1.6 | 11.1 ± 1.2 | – | partly converted to their parent | – | – | –
